What was measured:
[1] = Solubility in different solvents according to Chinese Pharmacopeia (2005 edition); format: physicochemical; details: for Result: at the given solute:solvent ratio
Protocol: The solubility of the (S)—[N-3-(3′-fluoro-4′-(4″-phenylpiperazinyl))phenyl-2-oxo-5-oxazolelidinyl]methylacetamide hydrates was tested with different solvents, and the test results are shown in Tables 15-19. The solubility was measured according to Chinese Pharmacopeia (2005 edition).

E. feacium = assay: Minimum inhibitory concentration (MIC) in vitro, agar dilution method; format: cell-based; details: hydrate
Summary of the method: (§1)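 Isolates from patients in Sichuan and Beijing areas. Method: agar dilution per CLSI/NCCLS. Values: MIC, with MIC50 and MIC90 inhibiting 50% and 90% of strains.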

E. feacalis = assay: as above; format: cell-based; details: hydrate
Summary of the method: as §1

S. epidermidis MRSE = assay: as above; format: cell-based; details: hydrate
Summary of the method: as §1

[2] = test system: Staphylococcus aureus MRSA; assay: as above; format: cell-based; details: hydrate
Summary of the method: as §1

S. epidermidis MSSE = assay: as above; format: cell-based; details: hydrate
Summary of the method: as §1

[3] = test system: Staphylococcus aureus MSSA; assay: as above; format: cell-based; details: hydrate
Summary of the method: as §1

Staphylococcus aureus = assay: Minimum inhibitory concentration (MIC) in vitro, agar dilution method, quality control strain; format: cell-based; details: strain S. AT C C25923 (Table 7 No. 1); hydrate
Source text: Hydrates Samples: • The 1/2 hydrates prepared according to Example 2; • Content (purity % wt): 99.0%; • The 1/12 hydrates prepared according to Example 253; • Content (purity % wt): 98.9%; • The 2/7 hydrates prepared according to Example 106; • Content (purity % wt): 98.8%; • The 2/5 hydrates prepared according to Example 162; • Content (purity % wt): 99.0%; • The 3/4 hydrates prepared according to Example 337; • Content (purity % wt): 98.8%; • Preparation: dissolved in DMSO, and further diluted with sterile distilled water to desired concentration. • The hydrates samples were supplied by Sichuan Beilike Biotechnology LTD.
Anhydrous Sample: • The anhydrous compounds prepared according to Example 1. • Content (purity % wt): 98.6%; • Preparation: dissolved in DMSO, and further diluted with sterile distilled water to desired concentration; • The anhydrous sample was supplied by Sichuan Beilike Biotechnology LTD.
Control Samples • Vancomycin: provided by Sichuan Beilike Biotechnology LTD, purchased from Eli Lilly Japan K.K. • Lot No.: WM16151 (production date: Apr. 10, 2007, expiration date: Apr. 9, 2009). • Specification: 500 mg/bottle; solubility (physicochemical properties): soluble in water. • Linezolid (LZ): provided by Sichuan Beilike Biotechnology LTD.
Bacteria Strains • Clinically isolated strains: clinically isolated bacterial pathogens collected in Sichuan and Beijing areas from March 2007 to May 2008. • Species include: Staphylococcus aureus MRSA, Staphylococcus aureus MSSA, S. epidermidis MRSE, S. epidermidis MSSE, E. feacalis, and E. feacium, a total of 51 strains. • Quality control strains: Staphylococcus aureus […] strain kept in Sichuan Industrial Institute of Antibiotics, purchased from the medical testing center of the Ministry of Health, China.
Experimental Method: • Measurement of the minimum inhibitory concentration (MIC) in vitro: • The minimum inhibitory concentration (MIC) of each test sample against test strains was measured by using the agar dilution method recommended by the U.S. National Committee for Clinical Laboratory Standards (CLSI/NCCIs).
Based on the CLSI/NCCL's testing standard with respect to vancomycin and linezolid (see Table 6), the minimum inhibitory concentration (MIC) values of every strain were reported, and the MIC50 (the concentration that inhibits 50% of the different strains of bacteria), MIC90 (the concentration that inhibits 90% of the different strains of bacteria), and MICrange (the range of the MIC value of the tested strains) were observed.

[4] = E. feacium (5 strains), clinically isolated
[5] = E. feacalis (5 strains), clinically isolated
[6] = S. ep MRSE (10 strains), clinically isolated
[7] = S. MRSA (10 strains), clinically isolated
[8] = S. ep MSSE (10 strains), clinically isolated
[9] = S. MSSA (11 strains), clinically isolated

CC(=O)NC[C@H]1CN(c2ccc(N3CCN(c4ccccc4)CC3)c(F)c2)C(=O)O1 [1/12 hydrate, (S)—[N-3-(3′-fluoro-4′-(4″-phenylpiperazinyl))phenyl-2-oxo-5-oxazolidinyl]methyl acetamide 1/12 hydrate]
Solubility compared with the anhydride ([1]; different solvents): sometimes more soluble than the anhydride
Result ([1]; solvent 0.1N Hydrochloric acid): Dissolved
Result ([1]; solvent 0.1N Sodium hydroxide): Insoluble
Result ([1]; solvent Acetonitrile): Dissolved
Result ([1]; solvent Ethanol): Dissolved
Result ([1]; solvent Methanol): Dissolved
Result ([1]; solvent Water, hydrate): Dissolved
MIC50 (E. feacium; [4]): 0.5 µg/mL
MIC90 (E. feacium; [4]): 1 µg/mL
MICrange (E. feacium; [4]): 0.25 to 1 µg/mL
MIC (E. feacium; strain Efm 98 (Table 8 No. 21)): 0.25 µg/mL
MIC (E. feacium; strain Efm 171 (Table 8 No. 25)): 0.5 µg/mL
MIC (E. feacium; strain Efm 197 (Table 8 No. 22)): 0.5 µg/mL
MIC (E. feacium; strain Efm N3 (Table 8 No. 23)): 1 µg/mL
MIC (E. feacium; strain Efm N4 (Table 8 No. 24)): 0.5 µg/mL
MIC50 (E. feacalis; [5]): 0.125 µg/mL
MIC90 (E. feacalis; [5]): 0.25 µg/mL
MICrange (E. feacalis; [5]): 0.06 to 0.25 µg/mL
MIC (E. feacalis; strain Efa 116 (Table 8 No. 16)): 0.25 µg/mL
MIC (E. feacalis; strain Efa 907 (Table 8 No. 19)): 0.06 µg/mL
MIC50 (S. epidermidis MRSE; [6]): 0.25 µg/mL
MIC90 (S. epidermidis MRSE; [6]): 0.5 µg/mL
MICrange (S. epidermidis MRSE; [6]): 0.06 to 0.5 µg/mL
MIC (S. epidermidis MRSE; strain S. ep MRSE4 (Table 8 No. 9)): 0.125 µg/mL
MIC (S. epidermidis MRSE; strain S. ep MRSE20 (Table 8 No. 6)): 0.25 µg/mL
MIC (S. epidermidis MRSE; strain S. ep MRSE87 (Table 8 No. 13)): 0.25 µg/mL
MIC (S. epidermidis MRSE; strain S. ep MRSE90 (Table 8 No. 10)): 0.125 µg/mL
MIC (S. epidermidis MRSE; strain S. ep MRSE101 (Table 8 No. 7)): 0.06 µg/mL
MIC (S. epidermidis MRSE; strain S. ep MRSE105 (Table 8 No. 11)): 0.25 µg/mL
MIC (S. epidermidis MRSE; strain S. ep MRSE140 (Table 8 No. 14)): 0.5 µg/mL
MIC (S. epidermidis MRSE; strain S. ep MRSE142 (Table 8 No. 12)): 0.25 µg/mL
MIC (S. epidermidis MRSE; strain S. ep MRSE210 (Table 8 No. 15)): 0.25 µg/mL
MIC (S. epidermidis MRSE; strain S. ep MRSE211 (Table 8 No. 8)): 0.25 µg/mL
MIC50 [2, 7]: 0.5 µg/mL
MIC90 [2, 7]: 0.5 µg/mL
MICrange [2, 7]: 0.25 to 0.5 µg/mL
MIC ([2]; strain S. MRSA 29 (Table 7 No. 15)): 1 µg/mL
MIC ([2]; strain S. MRSA 101 (Table 7 No. 14)): 0.5 µg/mL
MIC ([2]; strain S. MRSA 201 (Table 7 No. 13)): 0.5 µg/mL
MIC ([2]; strain S. MRSA B27 (Table 7 No. 21)): 0.5 µg/mL
MIC ([2]; strain S. MRSA B105 (Table 7 No. 17)): 0.5 µg/mL
MIC ([2]; strain S. MRSA B143 (Table 7 No. 19)): 0.5 µg/mL
MIC ([2]; strain S. MRSA B151 (Table 7 No. 20)): 0.5 µg/mL
MIC ([2]; strain S. MRSA B164 (Table 7 No. 16)): 0.5 µg/mL
MIC ([2]; strain S. MRSA B199 (Table 7 No. 22)): 1 µg/mL
MIC ([2]; strain S. MRSA B617 (Table 7 No. 18)): 0.25 µg/mL
MIC50 (S. epidermidis MSSE; [8]): 0.25 µg/mL
MIC90 (S. epidermidis MSSE; [8]): 0.5 µg/mL
MICrange (S. epidermidis MSSE; [8]): 0.125 to 0.5 µg/mL
MIC (S. epidermidis MSSE; strain S. ep MSSE87 (Table 7 No. 23)): 0.125 µg/mL
MIC (S. epidermidis MSSE; strain S. ep MSSE88 (Table 8 No. 5)): 0.5 µg/mL
MIC (S. epidermidis MSSE; strain S. ep MSSE113 (Table 7 No. 24)): 0.25 µg/mL
MIC (S. epidermidis MSSE; strain S. ep MSSE116 (Table 7 No. 25)): 0.125 µg/mL
MIC (S. epidermidis MSSE; strain S. ep MSSE118 (Table 8 No. 2)): 0.5 µg/mL
MIC (S. epidermidis MSSE; strain S. ep MSSE119 (Table 7 No. 27)): 0.125 µg/mL
MIC (S. epidermidis MSSE; strain S. ep MSSE137 (Table 8 No. 4)): 0.5 µg/mL
MIC (S. epidermidis MSSE; strain S. ep MSSE140 (Table 8 No. 3)): 0.5 µg/mL
MIC (S. epidermidis MSSE; strain S. ep MSSE142 (Table 7 No. 26)): 0.5 µg/mL
MIC (S. epidermidis MSSE; strain S. ep MSSE153 (Table 8 No. 1)): 0.5 µg/mL
MIC50 [3, 9]: 0.5 µg/mL
MIC90 [3, 9]: 0.5 µg/mL
MICrange [3, 9]: 0.25 to 0.5 µg/mL
MIC ([3]; strain S. MSSA 123 (Table 7 No. 3)): 0.5 µg/mL
MIC ([3]; strain S. MSSA 187 (Table 7 No. 7)): 0.5 µg/mL
MIC ([3]; strain S. MSSA 195 (Table 7 No. 6)): 0.5 µg/mL
MIC ([3]; strain S. MSSA 195 (Table 7 No. 12)): 0.5 µg/mL
MIC ([3]; strain S. MSSA 201 (Table 7 No. 11)): 0.25 µg/mL
MIC ([3]; strain S. MSSA 232 (Table 7 No. 2)): 0.5 µg/mL
MIC ([3]; strain S. MSSA 275 (Table 7 No. 10)): 1 µg/mL
MIC ([3]; strain S. MSSA 466 (Table 7 No. 8)): 0.25 µg/mL
MIC ([3]; strain S. MSSA 519 (Table 7 No. 9)): 0.5 µg/mL
MIC ([3]; strain S. MSSA 520 (Table 7 No. 4)): 0.5 µg/mL
MIC ([3]; strain S. MSSA 580 (Table 7 No. 5)): 0.25 µg/mL
MIC (Staphylococcus aureus): 0.5 µg/mL

Reference: patent publication US8916567B2, “Certain crystalline hydrates, pharmaceutical compositions thereof and methods for preparation and use thereof” (Universal Technology Alliance, Inc., priority 2009, dated 2014)
